Columns and labels:
SARS CoV [1] = experiment: in vitro; settings: African green monkey
SARS CoV [2] = settings: Vero E6 cells
in vitro = settings: African green monkey
SARS CoV [3] = experiment: microbe, parasite or virus in culture; settings: Severe acute respiratory syndrome coronavirus, Vero C1008, read-out: Anti-SARS CoV IC50

Row | Structure (SMILES) | selectivity ratio (SARS CoV [1]) | reduction of levels of CPEs caused by SARS CoV infection (in words) (SARS CoV [2]) | CC50 (in vitro) | IC50 (SARS CoV [3]) | cytotoxicity per se (in words) (Vero E6 cells) | melting point
1 | COc1cc2c3c(c4cc(OC)c(OC)cc4c2cc1OC)CN1CCCC1C3 (stereo not drawn) [Compound 1] | 23.3 | effectively reduced | 420 nM | 18 nM | low cytotoxicity | –
2 | COc1cc2c3c(c4cc(OC)c(OC)cc4c2cc1OC)CN1CCCCC1C3 (stereo not drawn) [Compound 11] | – | effectively reduced | – | – | low cytotoxicity | –
3 | COc1cc2c3c(c4cc(OC)c(OC)cc4c2cc1OC)C(O)C1CCCCN1C3 (stereo not drawn) [Compound 12] | > 7.1 | – | > 100 nM | 14 nM | – | –
4 | COc1cc2c3c(c4cc(OC)c(OC)cc4c2cc1OC)C[N+]1([O-])CCCCC1C3 (stereo not drawn) [Compound 18] | > 56 | – | – | < 100 nM | – | –
5 | COc1cc2c3cc(OC)c(OC)cc3c3c[n+]4c(cc3c2cc1OC)CCCC4.[Br-] [Compound 19] | – | effectively reduced | – | – | low cytotoxicity | –
6 | COc1ccc2c3c(c4cc(OC)c(OC)cc4c2c1)CN1CCCC1C3OC(C)=O (stereo not drawn) [Compound 32] | – | – | – | – | – | 196 to 198 °C
